As usually defined, the EC50 is the concentration that produces a half-maximal response.

Consider 25 compounds from patent US9695151B2, “3,4-dihydro-2H-isoquinoline-1-one and 2,3-dihydro-isoindol-1-one compounds” (Hoffmann-La Roche Inc., priority 2013, dated 2017).

One assay has as its target human CYP11B1 (Homo sapiens (Human), UniProt P15538). Briefly: G-402 cellular enzyme assay, human CYP11B1 (cortisol release). Conditions: G-402 cells, 1 μM Deoxycortisol. The assay is classed as cell-based. The text has this: (§1) Herein we identified the use of the G-402 cell line as a host cell to ectopically express (transiently or stably) enzymes of the CYP11 family. Specifically we developed stable G-402 cells expressing ectopically human CYP11B1, human CYP11B2, human CYP11A1, cynmolgus CYP11B1 or cynomolgus CYP11B2 enzyme activity. Importantly the identified cell line G-402 expresses co-factors (adrenodoxin and adrenodoxin reductase) important for the activity of the CYP11 family and no relevant enzyme activity of the CYP11 family (in comparison to H295R cells) was detected in these cells. Therefore the G-402 cell line is uniquely suited as a host cell for the ectopic expression of enzymes from the CYP11 family.
(§2) G-402 cells can be obtained from ATCC (CRL-1440) and were originally derived from a renal leiomyoblastoma.
(§3) The expression plasmids contains the ORF for either human/cyno CYP11B1 or CYP11B2 under the control of a suitable promoter (CMV-promoter) and a suitable resistance marker (neomycin). Using standard techniques the expression plasmid is transfected into G-402 cells and these cells are then selected for expressing the given resistance markers. Individual cell-clones are then selected and assessed for displaying the desired enzymatic activity using 11-Deoxycorticosterone (Cyp11B2) or 11-Deoxycortisol (Cyp11B1) as a substrate.
(§4) G-402 cells expressing CYP11 constructs were established as described above and maintained in McCoy's 5a Medium Modified, ATCC Catalog No. 30-2007 containing 10% FCS and 400 μg/ml G418 (Geneticin) at 37° C. under an atmosphere of 5% CO2/95% air. Cellular enzyme assays were performed in DMEM/F12 medium containing 2.5% charcoal treated FCS and appropriate concentration of substrate (0.3-10 uM 11-Deoxycorticosterone, 11-Deoxycortisol or Corticosterone). For assaying enzymatic activity, cells were plated onto 96 well plates and incubated for 16 h. An aliquot of the supernatant is then transferred and analyzed for the concentration of the expected product (Aldosterone for CYP11B2; Cortisol for CYP11B1). The concentrations of these steroids can be determined using HTRF assays from CisBio analyzing either Aldosterone or Cortisol.
(§5) Inhibition of the release of produced steroids can be used as a measure of the respective enzyme inhibition by test compounds added during the cellular enzyme assay. The dose dependent inhibition of enzymatic activity by a compound is calculated by means of plotting added inhibitor concentrations (x-axes) vs. measured steroid/product level (y-axes). The inhibition is then calculated by fitting the following 4-parameter sigmoidal function (Morgan-Mercer-Flodin (MMF) model) to the raw data points using the least squares method:
(§6) [formula] wherein, A is the maximum y value, B is the EC50 factor determined using XLFit, C is the minimum y value and D is the slope value.
(§7) EC50 values for compounds claimed herein were tested with the G402-based assay system described. Cyp11B2 enzyme activity was tested in presence of 1 μM Deoxycorticosterone and variable amounts of inhibitors; Cyp11B1 enzyme activity was tested in presence of 1 μM Deoxycortisol and variable amounts of inhibitors.

The target of another assay is CYP11B2 (Homo sapiens (Human), UniProt P19099). Description: G-402 cellular enzyme assay, human CYP11B2 (aldosterone release). The assay is classed as cell-based. Conditions: G-402 cells, 1 μM Deoxycorticosterone.
Sequence of CYP11B2 (P19099 25-503): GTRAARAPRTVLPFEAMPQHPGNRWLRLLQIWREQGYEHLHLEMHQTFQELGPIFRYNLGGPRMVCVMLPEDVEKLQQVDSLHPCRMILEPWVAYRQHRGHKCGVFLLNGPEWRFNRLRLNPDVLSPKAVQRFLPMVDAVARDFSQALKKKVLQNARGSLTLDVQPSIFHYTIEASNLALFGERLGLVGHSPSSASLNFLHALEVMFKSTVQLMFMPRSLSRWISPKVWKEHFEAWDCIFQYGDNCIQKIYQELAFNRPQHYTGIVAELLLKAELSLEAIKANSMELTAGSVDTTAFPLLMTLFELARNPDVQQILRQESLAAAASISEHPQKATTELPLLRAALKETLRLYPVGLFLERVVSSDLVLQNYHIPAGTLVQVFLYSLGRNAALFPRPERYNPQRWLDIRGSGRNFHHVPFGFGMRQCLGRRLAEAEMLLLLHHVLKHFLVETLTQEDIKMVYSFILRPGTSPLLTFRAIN
Excerpt: as §1, §2, §3, §4, §5, §6, §7

Sequence of human CYP11B1 (P15538 25-503): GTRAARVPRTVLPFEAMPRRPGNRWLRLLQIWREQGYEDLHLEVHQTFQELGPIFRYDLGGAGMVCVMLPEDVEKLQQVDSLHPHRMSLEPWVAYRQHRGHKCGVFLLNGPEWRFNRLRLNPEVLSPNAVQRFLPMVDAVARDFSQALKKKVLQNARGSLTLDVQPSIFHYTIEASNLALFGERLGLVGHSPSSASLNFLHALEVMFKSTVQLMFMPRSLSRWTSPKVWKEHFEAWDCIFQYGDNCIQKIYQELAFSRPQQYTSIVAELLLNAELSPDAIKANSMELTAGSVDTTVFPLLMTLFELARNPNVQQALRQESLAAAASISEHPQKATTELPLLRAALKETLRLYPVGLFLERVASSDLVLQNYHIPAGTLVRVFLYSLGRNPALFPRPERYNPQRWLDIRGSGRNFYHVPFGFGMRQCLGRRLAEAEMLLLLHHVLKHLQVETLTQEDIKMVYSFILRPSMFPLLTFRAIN

Regarding `CCC(=O)N1CC(Nc2cncc(N3C(=O)c4ccc(Cl)cc4[C@H]3C)c2)C1` (single isomer, unassigned) [Example 39, (3R or 3S)-5-Chloro-3-methyl-2-[5-[(1-propanoylazetidin-3-yl)amino]-3-pyridyl]isoindolin-1-one], the figures for the EC50 at human CYP11B1 and on CYP11B2 were 10.8 µM and 0.092 µM, respectively.

Turning to `CCC(=O)N1CC(Nc2cncc(N3C(=O)c4ccc(Cl)cc4[C@@H]3C)c2)C1` (single isomer, unassigned) [Example 40, (3S or 3R)-5-Chloro-3-methyl-2-[5-[(1-propanoylazetidin-3-yl)amino]-3-pyridyl]isoindolin-1-one], the figures for the EC50 on human CYP11B1 and on CYP11B2 were 4.18 µM and 0.154 µM, respectively.

For `CCS(=O)(=O)N1CC(Nc2cncc(N3C(=O)c4ccc(Cl)cc4[C@H]3C)c2)C1` (single isomer, unassigned) [Example 41, (3R or 3S)-5-Chloro-2-[5-[(1-ethylsulfonylazetidin-3-yl)amino]-3-pyridyl]-3-methyl-isoindolin-1-one], the figures for the EC50 on human CYP11B1 and on CYP11B2 were 10.9 µM and 0.039 µM, respectively.

Regarding `CCS(=O)(=O)N1CC(Nc2cncc(N3C(=O)c4ccc(Cl)cc4[C@@H]3C)c2)C1` (single isomer, unassigned) [Example 42, (3S or 3R)-5-Chloro-2-[5-[(1-ethylsulfonylazetidin-3-yl)amino]-3-pyridyl]-3-methyl-isoindolin-1-one], the EC50 was 1.07 µM at human CYP11B1 and 0.012 µM at CYP11B2.

With `CC(=O)N1CC(Nc2cncc(N3C(=O)c4ccc(Cl)cc4C3(C)C)c2)C1` [Example 1, 2-[5-[(1-Acetylazetidin-3-yl)amino]pyridin-3-yl]-5-chloro-3,3-dimethylisoindol-1-one], the EC50 at human CYP11B1 turned out to be 5.84 µM; at CYP11B2, 0.038 µM.

For `CC(=O)N1CC(N(C)c2cncc(N3C(=O)c4ccc(Cl)cc4C3(C)C)c2)C1` [Example 2, 2-[5-[(1-Acetylazetidin-3-yl)-methylamino]pyridin-3-yl]-5-chloro-3,3-dimethylisoindol-1-one], the EC50 stood at 0.552 µM on human CYP11B1 and 0.012 µM on CYP11B2.

Turning to `CC(=O)N1CCC(Nc2cncc(N3C(=O)c4ccc(Cl)cc4C3(C)C)c2)CC1` [Example 5, 2-[5-[(1-Acetylpiperidin-4-yl)amino]pyridin-3-yl]-5-chloro-3,3-dimethylisoindol-1-one], the EC50 worked out at 2.45 µM on human CYP11B1 and 0.031 µM at CYP11B2.

Take `CCS(=O)(=O)N1CCC(Nc2cncc(N3C(=O)c4ccc(Cl)cc4C3(C)C)c2)CC1` [Example 6, 5-Chloro-2-[5-[(1-ethylsulfonylpiperidin-4-yl)amino]pyridin-3-yl]-3,3-dimethylisoindol-1-one]: the figures for the EC50 on human CYP11B1 and on CYP11B2 were 1.54 µM and 0.004 µM, respectively.

On to `CCS(=O)(=O)N1CC(Nc2cncc(N3C(=O)c4ccc(Cl)cc4C3(C)C)c2)C1` [Example 7, 5-Chloro-2-[5-[(1-ethylsulfonylazetidin-3-yl)amino]pyridin-3-yl]-3,3-dimethylisoindol-1-one], for which the EC50 on human CYP11B1 is 1.64 µM; at CYP11B2, 0.008 µM.

`CC1(C)c2cc(Cl)ccc2C(=O)N1c1cncc(NC2CN(S(C)(=O)=O)C2)c1` [Example 8, 5-Chloro-3,3-dimethyl-2-[5-[(1-methylsulfonylazetidin-3-yl)amino]pyridin-3-yl]isoindol-1-one]: the concentration for a half-maximal effect (EC50) worked out at 2.8 µM at human CYP11B1 and 0.017 µM at CYP11B2.

Consider `CCC(=O)N1CC(Nc2cncc(N3C(=O)c4ccc(Cl)cc4C3(C)C)c2)C1` [Example 9, 5-Chloro-3,3-dimethyl-2-[5-[(1-propanoylazetidin-3-yl)amino]pyridin-3-yl]isoindol-1-one], for which the EC50 at human CYP11B1 is 2.56 µM; at CYP11B2, 0.01 µM.

For `CCS(=O)(=O)N1CC(N(C)c2cncc(N3C(=O)c4ccc(Cl)cc4C3(C)C)c2)C1` [Example 10, 5-Chloro-2-[5-[(1-ethylsulfonylazetidin-3-yl)-methylamino]pyridin-3-yl]-3,3-dimethylisoindol-1-one], the EC50 at human CYP11B1 was found to be 0.039 µM; on CYP11B2, 0.0005 µM.

With `CN(c1cncc(N2C(=O)c3ccc(Cl)cc3C2(C)C)c1)C1CN(S(C)(=O)=O)C1` [Example 11, 5-Chloro-3,3-dimethyl-2-[5-[methyl-(1-methylsulfonylazetidin-3-yl)amino]pyridin-3-yl]isoindol-1-one], the EC50 was 0.05 µM at human CYP11B1 and 0.003 µM on CYP11B2.

With `CCC(=O)N1CC(N(C)c2cncc(N3C(=O)c4ccc(Cl)cc4C3(C)C)c2)C1` [Example 12, 5-Chloro-3,3-dimethyl-2-[5-[methyl-(1-propanoylazetidin-3-yl)amino]pyridin-3-yl]isoindol-1-one], the EC50 on human CYP11B1 is 0.086 µM; on CYP11B2 it was 0.002 µM.

Consider `CC(C)S(=O)(=O)N1CC(N(C)c2cncc(N3C(=O)c4ccc(Cl)cc4C3(C)C)c2)C1` [Example 13, 5-Chloro-3,3-dimethyl-2-[5-[methyl-(1-propan-2-ylsulfonylazetidin-3-yl)amino]pyridin-3-yl]isoindol-1-one], for which the EC50 was 0.037 µM on human CYP11B1 and 0.0005 µM on CYP11B2.

In the case of `CCCS(=O)(=O)N1CC(N(C)c2cncc(N3C(=O)c4ccc(Cl)cc4C3(C)C)c2)C1` [Example 14, 5-Chloro-3,3-dimethyl-2-[5-[methyl-(1-propylsulfonylazetidin-3-yl)amino]pyridin-3-yl]isoindol-1-one], the EC50 at human CYP11B1 is 0.025 µM; at CYP11B2, 0.0006 µM.

Consider `CCC(=O)N1CCC(N(C)c2cncc(N3C(=O)c4ccc(Cl)cc4C3(C)C)c2)CC1` [Example 19, 5-Chloro-3,3-dimethyl-2-[5-[methyl-(1-propanoylpiperidin-4-yl)amino]pyridin-3-yl]isoindol-1-one], for which the EC50 was 0.002 µM at human CYP11B1 and 0.0007 µM on CYP11B2.

For the compound `CCS(=O)(=O)N1CCC(N(C)c2cncc(N3C(=O)c4ccc(Cl)cc4C3(C)C)c2)CC1` [Example 20, 5-Chloro-2-[5-[(1-ethylsulfonylpiperidin-4-yl)-methylamino]pyridin-3-yl]-3,3-dimethylisoindol-1-one], the values for the EC50 at human CYP11B1 and at CYP11B2 were 0.0004 µM and 0.0008 µM, respectively.

Turning to `CN(c1cncc(N2C(=O)c3ccc(Cl)cc3C2(C)C)c1)C1CCN(S(C)(=O)=O)CC1` [Example 21, 5-Chloro-3,3-dimethyl-2-[5-[methyl-(1-methylsulfonylpiperidin-4-yl)amino]pyridin-3-yl]isoindol-1-one], the EC50 on human CYP11B1 and on CYP11B2 was 0.003 µM in each case.

For the compound `CCC(=O)N1CC(Nc2cncc(N3Cc4cc(Cl)ccc4C3=O)c2)C1` [Example 28, 5-Chloro-2-[5-[(1-propanoylazetidin-3-yl)amino]pyridin-3-yl]-3H-isoindol-1-one], the 50% effective concentration (EC50) was > 30 µM at human CYP11B1 and 0.954 µM at CYP11B2.

Regarding `CCC(=O)N1CC(Nc2cncc(N3CCc4cc(Cl)ccc4C3=O)c2)C1` [Example 29, 6-Chloro-2-[5-[(1-propanoylazetidin-3-yl)amino]pyridin-3-yl]-3,4-dihydroisoquinolin-1-one], the EC50 is 23.7 µM on human CYP11B1 and 0.178 µM on CYP11B2.

For the compound `CCS(=O)(=O)N1CC(Nc2cncc(N3CCc4cc(Cl)ccc4C3=O)c2)C1` [Example 30, 6-Chloro-2-[5-[(1-ethylsulfonylazetidin-3-yl)amino]pyridin-3-yl]-3,4-dihydroisoquinolin-1-one], the figures for the concentration for a half-maximal effect (EC50) at human CYP11B1 and on CYP11B2 were 15.4 µM and 0.061 µM, respectively.

Regarding `CC(C)S(=O)(=O)N1CC(Nc2cncc(N3CCc4cc(Cl)ccc4C3=O)c2)C1` [Example 31, 6-Chloro-2-[5-[(1-propan-2-ylsulfonylazetidin-3-yl)amino]pyridin-3-yl]-3,4-dihydroisoquinolin-1-one], the EC50 at human CYP11B1 amounted to 3.84 µM; at CYP11B2 it was 0.034 µM.

Regarding `CC(=O)N1CC(Nc2cncc(N3CCc4cc(Cl)ccc4C3=O)c2)C1` [Example 32, 2-[5-[(1-Acetylazetidin-3-yl)amino]pyridin-3-yl]-6-chloro-3,4-dihydroisoquinolin-1-one], the EC50 was 41.1 µM at human CYP11B1 and 0.215 µM on CYP11B2.

As to `CCC(=O)N1CC(Nc2cncc(N3C(=O)c4ccc(Cl)cc4C3C)c2)C1` (centres unmarked) [Example 33, 5-Chloro-3-methyl-2-[5-[(1-propanoylazetidin-3-yl)amino]pyridin-3-yl]-3H-isoindol-1-one], the EC50 on human CYP11B1 is > 30 µM; at CYP11B2, 0.065 µM.
